Assay results from patent US20080089862A1, “PROTEASE INHIBITORS AND METHOD OF SCREENING THEREOF” (priority 2005, published 2008).
No end group written: not given here.

Target: T1, MBP-scNS3 (Hepatitis C virus genotype 1b, UniProt P26663)
T1 construct: made in house
Test: Bacterial genetic screening, blue/white colonies on X-gal indicative plates
Type: cell-based, Hepatitis C virus (HCV) genotype Ib
Conditions: IPTG-induced test bacteria (pMGT14); blue = NS3 inhibited
Source text: Applying the bacterial genetic screening to isolate NS3-inhibitory scFvs. Affinity selected phages were pooled and used as source for scFv DNA by digestion of phagemid DNA with Ncol and Notl. The pooled insert DNA was cloned into pMALc-NN that had been digested with the same enzymes essentially as described (Bach et al., 2001). In pMALc-NN, expression of MBP-scFvs is under the control of an IPTG-inducible tac promoter and the plasmid carries an ampicillin resistance cassette and the colEl origin of replication and is thus compatible with pMGT14 or pMGT15. The plasmid pool was introduced into E. coli TG-I cells already containing the pMGT14 plasmid. The transformants were plated to yield individual colonies on 2xYT agar plates supplemented with 0.004% (w/v) X-gal, 100 μg/ml ampicillin, 50 μg/ml kanamycin, 0.2% arabinose and 0.05 mM IPTG. Blue colonies were picked and pMALc-NN-scFv DNA was recovered and re-introduced into pMGT14 expressing cells to validate the results of the initial screening.
The expression platform was constructed as follows: C-terminal peptides were introduced by PCR using pMALc-NN (Bach et al., 2001) as template and recloning into the same backbone. The ligated vectors were introduced into the “bacterial test strain” and IPTG induction was used to overexpress the peptides. […]

Sequence | colony colour on X-gal plates
DYKDDDDK [FLAG epitope] | colorless
EASEDVVC (not fully specified) ["product-like" peptide (NS5A/B site P side), control construct] | blue
